In PubChem BioAssay AID1963833 (Molecular Pharmacology Branch, DTP, NCI, 2024):

Tested on: 883617-216-R-J1-PDC complex spheroid viability
Assay: Anticancer human tumor 883617-216-R-J1-PDC patient-derived bladder carcinoma cell line growth inhibition [POLQ]
Details: for IC50: curve of first compound; for viability, T/C: stronger effect = lower value; active = viability on the fitted dose curve at most 10% of control; inactive = the rest
Description: Multicellular complex tumor spheroid response to Polymerase (POL) inhibitors (novobiocin, ART-558, RP6685) in combination with a variety of drugs and investigational agents in selected tumor cell lines
The POL inhibitors (novobiocin, ART-558, and RP6685) were evaluated both individually and in combination with standard of care and investigational anticancer small molecules within a complex spheroid model of solid tumors. . Complex spheroids include a stromal component modeled by human endothelial cells (HUVEC) and fibroblasts modeled by human mesenchymal stem cells (MSCs). The concentration ranges selected for each drug and investigational agent were based upon clinically achievable concentrations if the clinical Cmax of the agent was known.
Compounds. The drugs and investigational agents: novobiocin (NSC847541), ART-558 (NSC835418), RP-6685 (NSC848927), peposertib (NSC802822), ceralasertib (NSC780249), elimusertib (NSC800525), camonsertib (NSC841442), AZD-1390 (NSC803789), olaparib (NSC753686), talazoparib (NSC767125), rucaparib (NSC756644), sotorasib (NSC818433), MRTX-1133 (NSC836407), SN-38 (NSC673596), topotecan (NSC609699), epotoside (NSC141540), doxorubicin (NSC123127), gemcitabine (NSC613327), 5-fluorouracil (NSC19893), paclitaxel (NSC125973), vemurafenib (NSC761431), MSA-2 (NSC828583), SN-011 (NSC837082), adavosertib (NSC754352), prexasertib (NSC758257), carboplatin (NSC241240) and oxaliplatin (NSC266046), were obtained from the National Cancer Institute (NCI) Developmental Therapeutics Program Chemical Repository (21). The FDA-approved anticancer drug set is available from the Developmental Therapeutics Program at https://dtp.cancer.gov/organization/dscb/obtaining/. […] The stock solutions were prepared in dimethyl sulfoxide (DMSO, Sigma-Aldrich, St. Louis, MO, cat. D2650), except for the platinum compounds which were prepared in saline (Quality Biological, Gaithersburg, MD, cat. 114-055-101), at 800-fold the tested concentration and stored at -70 degrees C prior to their use. All drugs and investigational agents were tested over a range starting from a high concentration at or near the clinical Cmax and decreasing in half-log increments. If the clinical Cmax for an agent had not been determined, the highest concentration tested was 10 microM, except for SN-38, which was tested at a high concentration of 1 microM.
Cell Culture. All cells were maintained in an incubator at 37 degrees C and 5% CO2 with 95% humidity. The PDC lines were cultured according to standard operating procedures established by the NCI PDMR (https://pdmr.cancer.gov). Table 3 of the manuscript, lists the cell lines along with the number of the three cell types plated to form the mct-spheroids and media for tumor cell growth. After thawing, all PDC lines, except 997537-175-T-J1-PDC and 415267-285-R-J2-PDC, were cultured in Matrigel-coated flasks prepared with a working solution of 1X Ham's F-12 nutrient mix, without supplementation (Thermo Fisher Scientific, cat. 11765054), 100 U/mL penicillin-streptomycin (Thermo Fisher Scientific, cat. 15140122), and 2.5% Matrigel (Corning Inc., Corning, NY, cat. 354248) for the first three passages. The two PDC lines 997537-175-T-J1-PDC and 415267-285-R-J2-PDC were cultured on uncoated flasks. The 857933-349-R-J2-PDC line was cultured in 6C/Colon 1B media containing advanced DMEM/F-12 (Thermo Fisher Scientific, cat. 12634028), 10 mM HEPES (Thermo Fisher Scientific, cat. 15630080), 1X GlutaMAX supplement (Thermo Fisher Scientific, cat. 35050061), 0.1 mg/mL primocin (InvivoGen, San Diego, CA, cat. ant-pm-2), 10% defined fetal bovine serum, heat inactivated (HyClone Laboratories Inc., Logan, UT, cat. SH30070.03HI), 50% L-WRN conditioned media (ATCC, cat. CRL-3276), 1.25 mM N-Acetyl-L-cysteine (Sigma-Aldrich, cat. A9165), 10 mM nicotinamide (Sigma-Aldrich, cat. N0636), 1X B-27 supplement (Thermo Fisher Scientific, cat. 17504044), 1X N-2 supplement (Thermo Fisher Scientific, cat. […]
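Note: spheroids exposed to compounds for seven days before readout.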

COc1ccc([C@@H](O)c2cc(-c3ncnc4cc(N5CCOCC5)ccc34)c(F)cc2Cl)nn1 + COC1C(OC(N)=O)C(O)C(Oc2ccc3c(O)c(NC(=O)c4ccc(O)c(CC=C(C)C)c4)c(=O)oc3c2C)OC1(C)C
2.9 µM: IC50 (second compound 0.0316 µM)
1.94 µM: IC50 (second compound 0.316 µM)
inactive: viability, T/C (second compound 0.0316 µM, first compound 0.0316 µM) 92.5% | viability, T/C (second compound 0.0316 µM, first compound 0.1 µM) 104% | viability, T/C (second compound 0.0316 µM, first compound 0.316 µM) 94.5% | viability, T/C (second compound 0.0316 µM, first compound 1 µM) 77.5% | viability, T/C (second compound 0.0316 µM, first compound 3.16 µM) 47.9% | viability, T/C (second compound 0.0316 µM, first compound 10 µM) 39.1% | viability, T/C (second compound 0.1 µM, first compound 0.0316 µM) 98.5% | viability, T/C (second compound 0.1 µM, first compound 0.1 µM) 82.2% | viability, T/C (second compound 0.1 µM, first compound 0.316 µM) 104% | viability, T/C (second compound 0.1 µM, first compound 1 µM) 61.3% | viability, T/C (second compound 0.1 µM, first compound 3.16 µM) 45.2% | viability, T/C (second compound 0.1 µM, first compound 10 µM) 33% | viability, T/C (second compound 0.316 µM, first compound 0.0316 µM) 93.9% | viability, T/C (second compound 0.316 µM, first compound 0.1 µM) 89.2% | viability, T/C (second compound 0.316 µM, first compound 0.316 µM) 76.8% | viability, T/C (second compound 0.316 µM, first compound 1 µM) 56.1% | viability, T/C (second compound 0.316 µM, first compound 3.16 µM) 46% | viability, T/C (second compound 0.316 µM, first compound 10 µM) 28.2% | viability, T/C (second compound 1 µM, first compound 0.0316 µM) 108% | viability, T/C (second compound 1 µM, first compound 0.1 µM) 85.8% | viability, T/C (second compound 1 µM, first compound 0.316 µM) 80.8% | viability, T/C (second compound 1 µM, first compound 1 µM) 61.3% | viability, T/C (second compound 1 µM, first compound 3.16 µM) 45.1% | viability, T/C (second compound 1 µM, first compound 10 µM) 33.1% | viability, T/C (second compound 3.16 µM, first compound 0.0316 µM) 95.9% | viability, T/C (second compound 3.16 µM, first compound 0.1 µM) 95.2% | viability, T/C (second compound 3.16 µM, first compound 0.316 µM) 78.3% | viability, T/C (second compound 3.16 µM, first compound 1 µM) 65.5% | viability, T/C (second compound 3.16 µM, first compound 3.16 µM) 45.4% | viability, T/C (second compound 3.16 µM, first compound 10 µM) 33.3% | viability, T/C (second compound 10 µM, first compound 0.0316 µM) 87% | viability, T/C (second compound 10 µM, first compound 0.1 µM) 79.3% | viability, T/C (second compound 10 µM, first compound 0.316 µM) 86.4% | viability, T/C (second compound 10 µM, first compound 1 µM) 68.1% | viability, T/C (second compound 10 µM, first compound 3.16 µM) 51.3% | viability, T/C (second compound 10 µM, first compound 10 µM) 34.2%
3.21 µM: IC50 (second compound 10 µM)
1.8 µM: IC50 (second compound 0.1 µM)
2.44 µM: IC50 (second compound 1 µM) | IC50 (second compound 3.16 µM)
